Test results as given in PubChem BioAssay (NCI).
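Cultured in 96-well plates, cells were exposed to test compound for 48 hours across five concentrations. The concentration for 50% growth inhibition is given as GI50. The concentration for full growth arrest is given as TGI.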

Assays:
Assay in all cases: NCI tumour cell line growth inhibition, 48 h
A498 renal = system: A498 renal
A549 NSCLC = system: A549 NSCLC
CAKI-1 renal = system: CAKI-1 renal
CCRF-CEM leukemia = system: CCRF-CEM leukemia
COLO 205 colon = system: COLO 205 colon
DLD-1 colon = system: DLD-1 colon
DMS 114 small cell lung = system: DMS 114 small cell lung
DMS 273 small cell lung = system: DMS 273 small cell lung
EKVX NSCLC = system: EKVX NSCLC
HCC-2998 colon = system: HCC-2998 colon
HCT-116 colon = system: HCT-116 colon
HCT-15 colon = system: HCT-15 colon
HL-60(TB) leukemia = system: HL-60(TB) leukemia
HOP-18 NSCLC = system: HOP-18 NSCLC
HOP-62 NSCLC = system: HOP-62 NSCLC
HOP-92 NSCLC = system: HOP-92 NSCLC
HT29 colon = system: HT29 colon
IGROV1 ovarian = system: IGROV1 ovarian
K-562 leukemia = system: K-562 leukemia
KM12 colon = system: KM12 colon
KM20L2 colon = system: KM20L2 colon
LOX IMVI melanoma = system: LOX IMVI melanoma
M19-MEL melanoma = system: M19-MEL melanoma
MALME-3M melanoma = system: MALME-3M melanoma
MCF7 breast = system: MCF7 breast
MOLT-4 leukemia = system: MOLT-4 leukemia
NCI-H226 lung = system: NCI-H226 lung
NCI-H23 lung = system: NCI-H23 lung
NCI-H460 lung = system: NCI-H460 lung
NCI-H522 lung = system: NCI-H522 lung
NCI/ADR-RES ovarian = system: NCI/ADR-RES ovarian
OVCAR-3 ovarian = system: OVCAR-3 ovarian
OVCAR-4 ovarian = system: OVCAR-4 ovarian
OVCAR-5 ovarian = system: OVCAR-5 ovarian
OVCAR-8 ovarian = system: OVCAR-8 ovarian
P388 leukemia = system: P388 leukemia
P388/ADR leukemia = system: P388/ADR leukemia
RPMI-8226 leukemia = system: RPMI-8226 leukemia
RXF 393 renal = system: RXF 393 renal
SF-268 CNS = system: SF-268 CNS
SF-295 CNS = system: SF-295 CNS
SF-539 CNS = system: SF-539 CNS
SK-MEL-2 melanoma = system: SK-MEL-2 melanoma
SK-MEL-28 melanoma = system: SK-MEL-28 melanoma
SK-MEL-5 melanoma = system: SK-MEL-5 melanoma
SK-OV-3 ovarian = system: SK-OV-3 ovarian
SN12C renal = system: SN12C renal
SN12K1 renal = system: SN12K1 renal
SNB-19 CNS = system: SNB-19 CNS
SNB-75 CNS = system: SNB-75 CNS
SNB-78 CNS = system: SNB-78 CNS
SW-620 colon = system: SW-620 colon
U251 CNS = system: U251 CNS
UACC-257 melanoma = system: UACC-257 melanoma
UACC-62 melanoma = system: UACC-62 melanoma
UO-31 renal = system: UO-31 renal
XF 498 CNS = system: XF 498 CNS

Compound `C=C(OC1C(C)=C2C(C1OC(=O)CCCCCCC)C(C)(OC(C)=O)CC(OC(=O)CCC)C1(O)C2OC(=O)C1(C)O)/C(C)=C/C` (configuration not stated) has a TGI (A498 renal) of 3.29 µM, a GI50 (A549 NSCLC) of under 0.0001 µM and a TGI (A549 NSCLC) of 6.16 µM. It also gave a GI50 (CAKI-1 renal) of 0.000475 µM, a TGI (CAKI-1 renal) of 0.0615 µM and a GI50 (CCRF-CEM leukemia) of under 0.0001 µM. It also gave a TGI (CCRF-CEM leukemia) of 6.24 µM, a GI50 (COLO 205 colon) of under 0.0001 µM and a TGI (COLO 205 colon) of 0.101 µM. It also gave a TGI (DLD-1 colon) of 16.4 µM, a TGI (DMS 114 small cell lung) of 0.207 µM and a TGI (DMS 273 small cell lung) of 0.453 µM. It also gave a GI50 (EKVX NSCLC) of under 0.0001 µM, a TGI (EKVX NSCLC) of 0.896 µM and a GI50 (HCC-2998 colon) of under 0.0001 µM. It also gave a TGI (HCC-2998 colon) of 0.778 µM, a GI50 (HCT-116 colon) of under 0.0001 µM and a TGI (HCT-116 colon) of 0.000151 µM. The GI50 (HCT-15 colon) was 0.0842 µM, the TGI (HCT-15 colon) was 15 µM and the GI50 (HL-60(TB) leukemia) was under 0.0001 µM. The TGI (HOP-18 NSCLC) was 9.19 µM, the GI50 (HOP-62 NSCLC) was under 0.0001 µM and the TGI (HOP-92 NSCLC) was 3.09 µM. It also gave a GI50 (HT29 colon) of under 0.0001 µM, a TGI (HT29 colon) of 1.8 µM and a TGI (IGROV1 ovarian) of 11 µM. It also gave a GI50 (K-562 leukemia) of under 0.0001 µM, a TGI (K-562 leukemia) of 5.38 µM and a GI50 (KM12 colon) of under 0.0001 µM. It also gave a TGI (KM12 colon) of 3.63 µM, a TGI (KM20L2 colon) of 1.23 µM and a GI50 (LOX IMVI melanoma) of under 0.0001 µM. For the same compound, the TGI (M19-MEL melanoma) was 1.29 µM, the GI50 (MALME-3M melanoma) was 0.000907 µM and the TGI (MALME-3M melanoma) was 0.131 µM. The TGI (MCF7 breast) was 0.191 µM, the GI50 (MOLT-4 leukemia) was 0.000402 µM and the TGI (MOLT-4 leukemia) was 0.177 µM. The GI50 (NCI-H226 lung) was under 0.0001 µM, the TGI (NCI-H226 lung) was 0.226 µM and the GI50 (NCI-H23 lung) was under 0.0001 µM. It also gave a TGI (NCI-H23 lung) of 3.82 µM, a GI50 (NCI-H460 lung) of under 0.0001 µM and a TGI (NCI-H460 lung) of 0.046 µM. The TGI (NCI-H522 lung) was 1.11 µM, the TGI (NCI/ADR-RES ovarian) was 6.51 µM and the GI50 (OVCAR-3 ovarian) was under 0.0001 µM. The GI50 (OVCAR-4 ovarian) was under 0.0001 µM, the TGI (OVCAR-4 ovarian) was 0.512 µM and the GI50 (OVCAR-5 ovarian) was under 0.0001 µM. For the same compound, the TGI (OVCAR-5 ovarian) was 8.64 µM, the GI50 (OVCAR-8 ovarian) was 0.000243 µM and the TGI (OVCAR-8 ovarian) was 5.98 µM. It also gave a TGI (P388 leukemia) of 0.993 µM, a TGI (P388/ADR leukemia) of 1.84 µM and a GI50 (RPMI-8226 leukemia) of under 0.0001 µM. It also gave a TGI (RPMI-8226 leukemia) of 0.0256 µM, a TGI (RXF 393 renal) of 1.53 µM and a GI50 (SF-268 CNS) of under 0.0001 µM. For the same compound, the TGI (SF-268 CNS) was 16.7 µM, the GI50 (SF-295 CNS) was under 0.0001 µM and the TGI (SF-295 CNS) was 3.22 µM. For the same compound, the GI50 (SF-539 CNS) was under 0.0001 µM, the TGI (SF-539 CNS) was 8.01 µM and the GI50 (SK-MEL-2 melanoma) was under 0.0001 µM. The TGI (SK-MEL-2 melanoma) was 0.0642 µM, the TGI (SK-MEL-28 melanoma) was 3.97 µM and the GI50 (SK-MEL-5 melanoma) was under 0.0001 µM. It also gave a TGI (SK-OV-3 ovarian) of 16.9 µM, a GI50 (SN12C renal) of 0.0105 µM and a TGI (SN12C renal) of 1.91 µM. It also gave a TGI (SN12K1 renal) of 0.0786 µM, a TGI (SNB-19 CNS) of 3.16 µM and a GI50 (SNB-75 CNS) of under 0.0001 µM. For the same compound, the TGI (SNB-75 CNS) was 1.61 µM, the TGI (SNB-78 CNS) was 19.1 µM and the GI50 (SW-620 colon) was under 0.0001 µM. It also gave a TGI (SW-620 colon) of 2.05 µM, a GI50 (U251 CNS) of under 0.0001 µM and a TGI (U251 CNS) of 1.73 µM. For the same compound, the GI50 (UACC-257 melanoma) was 0.000269 µM, the TGI (UACC-257 melanoma) was 11.9 µM and the TGI (UACC-62 melanoma) was 0.0273 µM. The GI50 (UO-31 renal) was 0.17 µM, the TGI (UO-31 renal) was 0.614 µM and the TGI (XF 498 CNS) was 8.97 µM.
